Reference: ChEMBL document CHEMBL5634079, “Development of novel celastrol-ligustrazine hybrids as potent peroxiredoxin 1 inhibitors against lung cancer” (Eur J Med Chem, 2023)

Legend:
[1] = molecular target: T1, Peroxiredoxin-1 (Homo sapiens, UniProt Q06830); experiment: Inhibition of PRDX1 (unknown origin) in presence of cofactor A/cofactor B/NADPH incubated for 25 mins
T1 sequence (Q06830 whole entry): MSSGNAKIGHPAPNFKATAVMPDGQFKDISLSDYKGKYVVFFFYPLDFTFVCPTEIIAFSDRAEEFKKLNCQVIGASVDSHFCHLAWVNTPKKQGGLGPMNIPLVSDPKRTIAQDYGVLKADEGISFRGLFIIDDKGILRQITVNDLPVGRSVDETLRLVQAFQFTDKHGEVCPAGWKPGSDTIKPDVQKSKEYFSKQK

[2] = system: A549; experiment: Antiproliferative activity against human A549 cells assessed as inhibition of cell growth incubated for 48 hrs in presence of celastrol by MTT assay; type: functional, cell-based; conditions: A549, 48 h
[3] = Antiproliferative activity against human LTEP-a2 cells assessed as inhibition of cell growth incubated for 48 hrs in presence of celastrol by MTT assay; type: functional, cell-based; conditions: LTEP-A2, 48 h
[4] = system: SK-HEP1; experiment: Antiproliferative activity against human SK-HEP1 cells assessed as inhibition of cell growth incubated for 48 hrs in presence of celastrol by MTT assay; type: functional, cell-based; conditions: SK-HEP1, 48 h
[5] = system: MDA-MB-231; experiment: Antiproliferative activity against human MDA-MB-231 cells assessed as inhibition of cell growth incubated for 48 hrs in presence of celastrol by MTT assay; type: functional, cell-based; conditions: MDA-MB-231, 48 h
[6] = system: A549; experiment: Antiproliferative activity against human A549 cells assessed as inhibition of cell growth incubated for 48 hrs by MTT assay; type: functional, cell-based; conditions: A549, 48 h
[7] = system: NCI-H1975; experiment: Antiproliferative activity against human NCI-H1975 cells assessed as inhibition of cell growth incubated for 48 hrs in presence of celastrol by MTT assay; type: functional, cell-based; conditions: NCI-H1975, 48 h
[8] = system: A549; experiment: Induction of apoptosis in human A549 cells assessed as late apoptotic cells at 2 uM incubated for 48 hrs by Annexin V-FITC and PI staining based flow cytometric analysis (reference value: 0.73%); type: functional
[9] = system: SK-HEP1; experiment: Antiproliferative activity against human SK-HEP1 cells assessed as inhibition of cell growth incubated for 48 hrs in presence of ligustrazine by MTT assay; type: functional, cell-based; conditions: SK-HEP1, 48 h
[10] = system: A549; experiment: Inhibition of cell migration in human A549 cells assessed as reduction in wound area at 2 uM incubated for 24 hrs by inverted microscopic analysis; type: functional; design: scale not given: the % may be the effect or the level left
[11] = system: A549; experiment: Induction of apoptosis in human A549 cells assessed as early apoptotic cells at 2 uM incubated for 48 hrs by Annexin V-FITC and PI staining based flow cytometric analysis (reference value: 0.76%); type: functional
[12] = system: A549; experiment: Induction of apoptosis in human A549 cells assessed as viable cells at 2 uM incubated for 48 hrs by Annexin V-FITC and PI staining based flow cytometric analysis (reference value: 93.8%); type: functional; conditions: read-out: Activity
[13] = system: A549; experiment: cells; conditions: Homo sapiens, A549, 48 h
Description: Antiproliferative activity against human A549 cells assessed as inhibition of cell growth incubated for 48 hrs in presence of ligustrazine by MTT assay

[14] = Antitumor activity against mouse Lewis lung carcinoma cell line implanted in C57BL/6J mouse assessed as tumor growth inhibition at 1 mg/kg, ip administered every day for 19 days; type: functional; conditions: 456 h, time 19 day, read-out: TGI
[15] = system: NCI-H1975; experiment: Antiproliferative activity against human NCI-H1975 cells assessed as inhibition of cell growth incubated for 48 hrs by MTT assay; type: functional, cell-based; conditions: NCI-H1975, 48 h
[16] = Antiproliferative activity against human LTEP-a2 cells assessed as inhibition of cell growth incubated for 48 hrs in presence of ligustrazine by MTT assay; type: functional, cell-based; conditions: LTEP-A2, 48 h
[17] = system: A549; experiment: Induction of apoptosis in human A549 cells assessed as necrotic cells at 2 uM incubated for 48 hrs by Annexin V-FITC and PI staining based flow cytometric analysis (reference value: 4.68%); type: functional
[18] = Antiproliferative activity against human LTEP-a2 cells assessed as inhibition of cell growth incubated for 48 hrs by MTT assay; type: functional, cell-based; conditions: LTEP-A2, 48 h
[19] = system: MDA-MB-231; experiment: cells; conditions: Homo sapiens, MDA-MB-231, 48 h
Description: Antiproliferative activity against human MDA-MB-231 cells assessed as inhibition of cell growth incubated for 48 hrs in presence of ligustrazine by MTT assay

[20] = system: NCI-H1975; experiment: Antiproliferative activity against human NCI-H1975 cells assessed as inhibition of cell growth incubated for 48 hrs in presence of ligustrazine by MTT assay; type: functional, cell-based; conditions: NCI-H1975, 48 h
[21] = system: MDA-MB-231; experiment: Antiproliferative activity against human MDA-MB-231 cells assessed as inhibition of cell growth incubated for 48 hrs by MTT assay; type: functional, cell-based; conditions: MDA-MB-231, 48 h
[22] = Toxicity in C57BL/6J mouse implanted with mouse Lewis lung carcinoma cell line assessed as decrease in body weight at 0.5 to 1 mg/kg, ip administered every day for 19 days; type: organism-based; conditions: in vivo, 456 h, dose 0.5-1 mg/kg, time 19 day
[23] = system: SK-HEP1; experiment: Antiproliferative activity against human SK-HEP1 cells assessed as inhibition of cell growth incubated for 48 hrs by MTT assay; type: functional, cell-based; conditions: SK-HEP1, 48 h
[24] = system: A549; experiment: Inhibition of cell invasion in human A549 cells incubated for 12 to 48 hrs by crystal violet staining based microscopic analysis; type: functional; conditions: dose 2-4 µM, time 12-48 hrs

Row | Structure (SMILES) | IC50 [6] [µM] | IC50 ([1]; read-out: IC50) [µM] | IC50 [15] [µM] | IC50 [18] [µM] | IC50 [21] [µM] | IC50 [23] [µM] | further results
1 | Cc1nc(C)c(C)nc1C [LIGUSTRAZINE] | > 20 |  |  |  |  |  | IC50 [1]: Not Active; IC50 [2]: 6.42 µM; IC50 [3]: 9.5 µM; IC50 [4]: 9.67 µM; IC50 [5]: 4.86 µM; IC50 [7]: 5.61 µM
2 | CC1=C(OC(=O)C2CCOCC2)C(=O)C=C2C1=CC=C1[C@@]2(C)CC[C@@]2(C)[C@@H]3C[C@](C)(C(=O)NCc4nc(C)c(C)nc4C)CC[C@]3(C)CC[C@]12C | 4.28 | 1.53 |  |  |  |  | 
3 | [O-][n+]1c(CBr)c(CBr)[n+]([O-])c2ccccc21 |  | 14.8 |  |  |  |  | 
4 | CC1=C(O)C(=O)C=C2C1=CC=C1[C@@]2(C)CC[C@@]2(C)[C@@H]3C[C@](C)(C(=O)NCc4nc(C)c(C)nc4C)CC[C@]3(C)CC[C@]12C | 3.39 | 0.165 |  |  |  |  | 
5 | CCC(=O)OC1=C(C)C2=CC=C3[C@@](C)(CC[C@@]4(C)[C@@H]5C[C@](C)(C(=O)NCc6nc(C)c(C)nc6C)CC[C@]5(C)CC[C@]34C)C2=CC1=O | 6.57 | 0.979 |  |  |  |  | 
6 | CC1=C(O)C(=O)C=C2C1=CC=C1[C@@]2(C)CC[C@@]2(C)[C@@H]3C[C@](C)(C(=O)O)CC[C@]3(C)CC[C@]12C [CELASTROL] | 9.28 |  | 6.05 | 12 | 4.88 | 10 | Activity [8]: 5.92%; IC50 [9]: 9.67 µM; Activity [10]: 50%; Activity [11]: 5.21%; viability at 2 µM [12]: 85.6%; IC50 [13]: 6.42 µM; inhibition in vivo at 1 mg/kg [14]: 71%; IC50 [16]: 9.5 µM; Activity [17]: 3.28%; IC50 [19]: 4.86 µM; IC50 [20]: 5.61 µM; Activity [22]: Non-Toxic; inhibition [24]: Dose-Dependent Effect
7 | CC1=C(O)C(=O)C=C2C1=CC=C1[C@@]2(C)CC[C@@]2(C)[C@@H]3C[C@](C)(C(=O)OCc4nc(C)c(C)nc4C)CC[C@]3(C)CC[C@]12C | 2.59 | 2.49 |  |  |  |  | 
8 | CC1=C(OC(=O)C2CC2)C(=O)C=C2C1=CC=C1[C@@]2(C)CC[C@@]2(C)[C@@H]3C[C@](C)(C(=O)NCc4nc(C)c(C)nc4C)CC[C@]3(C)CC[C@]12C | 2.57 | 0.239 | 3.15 | 7.46 | 6.06 | 2.72 | 
9 | CC(=O)OC1=C(C)C2=CC=C3[C@@](C)(CC[C@@]4(C)[C@@H]5C[C@](C)(C(=O)NCc6nc(C)c(C)nc6C)CC[C@]5(C)CC[C@]34C)C2=CC1=O | 6.66 | 1.47 |  |  |  |  | 
10 | CC1=C(OC(=O)/C=C/c2ccccc2)C(=O)C=C2C1=CC=C1[C@@]2(C)CC[C@@]2(C)[C@@H]3C[C@](C)(C(=O)OCc4nc(C)c(C)nc4C)CC[C@]3(C)CC[C@]12C | 2.71 | 0.525 | 1.49 | 3.31 | 2.13 | 1.64 | 
11 | CCCC(=O)OC1=C(C)C2=CC=C3[C@@](C)(CC[C@@]4(C)[C@@H]5C[C@](C)(C(=O)NCc6nc(C)c(C)nc6C)CC[C@]5(C)CC[C@]34C)C2=CC1=O | 1.56 | 0.285 | 1.48 | 5.96 | 3.64 | 2.78 | 
12 | CC(=O)OC1=C(C)C2=CC=C3[C@@](C)(CC[C@@]4(C)[C@@H]5C[C@](C)(C(=O)OCc6nc(C)c(C)nc6C)CC[C@]5(C)CC[C@]34C)C2=CC1=O | 5.27 | 0.481 |  |  |  |  | 
